Data taken from patent US5364615A (priority 1992, dated 1994).
Several values for one entry are separate records, joined by “and”; a condition that tells them apart may be missing. Equal values may be shown once. Entries after “also recorded” stand apart in the source; their conditions may differ. Read-outs that look alike come from different tables or passages of the source.

How the values were obtained:
Pneumocystis carinii [1] = assay: Post-exposure prophylaxis of PCP (Example 5); format: in vivo, human; conditions: for Percent Alive & Free of Relapse: 300 mg once per month
Text: Within 30 days of initiation of prophylaxis, ten patients were omitted due to treatment (9) or relapse (1). Of the 93 patients, 48 had had at least one previous episode of PCP. Two-thirds of the patients were taking AZT at the onset and throughout the duration of the post-exposure prophylaxis. The median and maximum duration of treatment at the time of analysis was 3.1 and 5.2 months.

[2] = Toxicity during PCP treatment (Example 1)
[3] = in vivo
[4] = human, in vivo
Text: (§1) Chest radiographs and arterial blood gas tensions were obtained as clinically indicated.

[5] = format: in vivo, human
Text: (§2) Five patients who developed PCP within 28 days were not evaluated. One hundred (66%) of the patients were concurrently receiving AZT, and 42 (28%) had experienced one prior episode of PCP.

[6] = Adverse reactions and toxicity during PCP therapy (Example 3); conditions: for FEV1/FVC ratio: mean±1 SD
clinical = conditions: human, serum, inhaled or intranasal, 300 mg
Description: Adult patients having or suspected of having AIDS, and who were hospitalized for a fiberoptic bronchoscopy to evaluate diffuse infiltrates on chest radiographs, were studied. The patients were divided into two groups. […] Two patients had received one dose and the other three doses.
Eighteen to 24 hours later both groups underwent fiberoptic bronchoscopy. After inspection of the airways, 3-5 aliquots (20 mL) of normal saline were injected and aspirated from the right middle lobe until at least 40 mL was recovered: C. […] Lavage fluid was centrifuged at 1,000×g for 10 min at 10° C. […] Briefly, proteins were precipitated with acetonitrile containing hexamidine as an internal standard. […] The lower limit of sensitivity of the assay was 2-3 ng/mL. Two sample t-test was used to compare groups: p values of <0.05 were regarded as significant.

Pneumocystis carinii [7] = conditions: human, in vivo
Text: The initial diagnosis of P. carinii pneumonia was based on finding the organism in induced sputum or bronchoalveolar lavage specimens.
Treatment was as described in Example 3.
as §1

Pneumocystis carinii [8] = assay: Treatment of Pneumocystis carinii pneumonia, inhaled vs intravenous pentamidine (Example 1); format: in vivo, human
[9] = Pentamidine concentrations in lavage fluid and plasma, HPLC (Example 1); format: in vivo, human
Description: For six inhalation patients (1, 4, 6, 7, 15, and 16) and five i.v. patients (2, 3, 5, 8, and 22), plasma samples were obtained at the completion of therapy and at 0.17, 0.5, 1, 1.5, 2, 2.5, 3, 4, 5, 6, 8, 10, 12, and 18 hours following initiation of therapy. For patients 9-14 and 17-21, trough and peak plasma samples were collected for the first three days, then weekly during therapy. Trough and peak samples were obtained on days 2, 3, 4, 5, 7, 11, and 13 for patient 2, days 2, 3, 4, 5, 7, and 12 for patient 3, days 2, 3, 4, 5, 13 and 18 for patient 5, and days 2, 3, 4, 5, and 11 for patient 8.

[10] = single 4 mg/kg intravenous dose, AIDS patients with P. carinii; cited from earlier work
Pneumocystis carinii [11] = conditions: cited from earlier work
Pneumocystis carinii [12] = assay: Randomized trial 300 mg twice per month vs 600 mg once per month (Example 7); format: in vivo, human
Text: as §2

[13] = Aerosol particle size of pentamidine; format: physicochemical; conditions: for particle size (MMAD): Respirgard II
Text: A compressed oxygen (5-7 L/min at 345 kPa, 50 psi) powered nebulizer produces the aerosol and one-way valves provide for entrainment of room air in patients whose minute ventilation is high, act as a baffle to decrease particle size, and direct expired air to a filter which removes the remaining particles of drug thereby preventing environmental contamination.
Particles were sized with a 7 stage Mercer cascade impactor (Intox Products, Albuquerque, N. Mex.). The gas supply was 6 L/min, the sample stream was not dried, and the impactor flow rates were 0.5 L/min. […] Results from the average of three determinations at each location were expressed as mass median aerodynamic diameter ±geometric standard deviation (MMAD±GSD). Raabe, J Aerosol Sci (1971) Z:289-303.

Side effects (Example 6) = format: in vivo, human
[14] = cited from earlier work
[15] = inhaled pentamidine; cited from earlier work
[16] = Serum pentamidine concentrations (Example 3); format: in vivo, human; conditions: aerosol
[17] = distal to the nebulizer (point A)
[18] = group b, 150 mg every two weeks
[19] = group c, 300 mg every four weeks

SMILES: N=C(N)c1ccc(OCCCCCOc2ccc(C(=N)N)cc2)cc1 [pentamidine, p,p'-(pentamethylenedioxy)dibenzamidine]
- reduction in the incidence of PCP (Pneumocystis carinii [1]; 300 mg by inhalation once monthly, based on historical controls): 5 fold
- Percent Alive & Free of Relapse (Pneumocystis carinii [1]; 0.0 months): 100.0%
- Percent Alive & Free of Relapse (Pneumocystis carinii [1]; 2.3 months): 98.57%
- Percent Alive & Free of Relapse (Pneumocystis carinii [1]; 2.5 months): 97.12%
- Percent Alive & Free of Relapse (Pneumocystis carinii [1]; 2.9 months): 95.53%
- Percent Alive & Free of Relapse (Pneumocystis carinii [1]; 3.0 months): 93.85%
- Percent Alive & Free of Relapse (Pneumocystis carinii [1]; 3.1 months): 92.08%
- Percent Alive & Free of Relapse (Pneumocystis carinii [1]; 3.7 months): 89.78%
- Percent Alive & Free of Relapse (Pneumocystis carinii [1]; 5.2 months): 79.81%
- delay of relapse (Pneumocystis carinii [1]; single prior episode of PCP): at least 5 months
- observed PCP cases (Pneumocystis carinii [1]; single prior episode, vs 10 based on 132 historical controls, p<0.01): 3
- glucose ([2]; approximately 165 determinations): > 3.9 mmol/L
- minor toxicity ([2]; inhalation): One inhalation patient (16) experienced minor toxicity (rash)
- major toxicity ([2]; inhalation, two of ten evaluable (neutropenia; both also received AZT)): 20%
- minor toxicity ([2]; intravenous, elevated serum creatinine in three, depressed leukocyte count in one): occurred in four iv-treated patients
- leukocyte count ([2]; intravenous, patient 18 after ten days): 6e+08 L⁻¹
- major toxicity ([2]; intravenous, two of nine (neutropenia, hepatotoxicity)): 22%
- change of therapy due to toxicity ([2]; iv-treated patients, two of 19 evaluated as printed): 11%
- hypotension or dysglycemia [3]: no episodes of hypotension or dysglycemia
- inhalation-associated cough [3]: Eight of thirteen patients (four of whom also experienced bronchospasm) had mild inhalation-associated cough
- reversible bronchospasm [3]: occurred in five patients
- severe adverse reactions [4]: No patient developed any severe adverse reactions
- deaths associated with PCP ([5]; 3 of 146): 2%
- deaths due to other causes ([5]; 9 of 146): 6%
- patients died ([5]; twelve of 146 evaluable): 8%
- FEV1/FVC ratio ([6]; end of therapy): 79.9±15.8%
- FEV1/FVC ratio, single treatment ([6]; first 4 patients): no different before and after a single treatment
- bronchospasm / airway obstruction ([6]; in vivo): Neither clinical nor spirometric evidence of airway obstruction occurred; also recorded: Clinical bronchospasm was not seen
- FEV1/FVC ratio ([6]; initial testing): 76.1±12.2%
- Toxicity Req Change of Therapy, % ([6]; n = 15): 0%
- concentration at 0.5 h (clinical): 13 ng/mL
- clinical response (hypoxia, fever, dyspnea, radiographs) (Pneumocystis carinii [7]): none of the patients were hypoxic or febrile, all had improvement in dyspnea, and all had current or subsequent chest radiographs indicating roentrographic improvement of infiltrates
- completion of therapy (Pneumocystis carinii [7]): All patients successfully completed therapy
- Outcome of therapy (Pneumocystis carinii [8]; inhalation 4 mg/Kg, UltraVent, per patient): failed; also recorded: success
- satisfactory response rate (Pneumocystis carinii [8]; inhalation therapy, evaluable patients): 90%
- treatment failures (Pneumocystis carinii [8]; inhalation, 4 of 13 patients): 31%
- responded satisfactorily (Pneumocystis carinii [8]; inhalation, 9 of 13 patients): 69%
- Time to discharge (Pneumocystis carinii [8]; inhalation, all patients in group, based on 9 successful patients): 15 ± 1 days
- satisfactory outcome (patients) (Pneumocystis carinii [8]; inhalation, of ten evaluated patients): nine had a satisfactory outcome
- died in the hospital (Pneumocystis carinii [8]; inhalation, one patient): 7.7%
- Time to discharge (Pneumocystis carinii [8]; inhalation, per patient (patient 9 died on day 9)): 27 days and 17 days and 16 days and 15 days and 14 days and 13 days
- satisfactory outcome (patients) (Pneumocystis carinii [8]; intravenous): Eight of nine iv-treated patients exhibited a satisfactory outcome
- Outcome of therapy (Pneumocystis carinii [8]; intravenous 3 mg/Kg, per patient, 3 mg/kg): success; also recorded: failed
- Time to discharge (Pneumocystis carinii [8]; intravenous, based on 8 successful patients): 14 ± 2 days
- responded satisfactorily (Pneumocystis carinii [8]; intravenous, eight of nine): 89%
- relapse (Pneumocystis carinii [8]; intravenous, four patients followed five to six months): no reported relapses
- Time to discharge (Pneumocystis carinii [8]; intravenous, per patient): 14 days and 12 days and 18 days and 13 days and 16 days
- concentration at 288 h ([9]; human, bronchoalveolar lavage fluid, inhaled or intranasal, inhalation, patient 4, day 12, read-out: mean concentration in repeat lavage): 178 ± 28 ng/mL
- concentration at 1656 h ([9]; human, bronchoalveolar lavage fluid, inhaled or intranasal, inhalation, patient 4, day 69 following completion of therapy, read-out: mean concentration in repeat lavage): 5.61 ± 0.78 ng/mL
- concentration at 360 h ([9]; human, bronchoalveolar lavage fluid, inhaled or intranasal, inhalation, patient 6, day 15, read-out: mean concentration in repeat lavage): 63 ± 22 ng/mL
- concentration at 360 h ([9]; human, bronchoalveolar lavage fluid, inhaled or intranasal, inhalation, patient 12, day 15, read-out: mean concentration in repeat lavage): 45.7 ± 0.9 ng/mL
- concentration at 1128 h ([9]; human, bronchoalveolar lavage fluid, inhaled or intranasal, inhalation, patient 14, day 47, read-out: mean concentration in repeat lavage): 3 ± 0.5 ng/mL
- concentration at 48 h ([9]; human, bronchoalveolar lavage fluid, iv, patient 2, day 2): 10.9 ± 2.9 ng/mL
- concentration at 144 h ([9]; human, bronchoalveolar lavage fluid, iv, patient 5, day 6): 3.4 ± 0.2 ng/mL
- Cmax ([9]; human, plasma, iv, read-out: maximum plasma concentration during remainder of therapy, mean): 497 ± 451 ng/mL
- plasma samples without detectable drug ([9]; inhalation): approximately two-thirds of the plasma samples contained no detectable drug
- lavage fluid concentration, inhalation vs iv ([9]; inhalation patients higher than iv-treated): approximately 10 fold
- Plasma max during treatment ([9]; inhalation, highest concentration during remainder of therapy, per patient): 6.1 ng/mL and 21.8 ng/mL and 7.8 ng/mL and 5.0 ng/mL and 13.0 ng/mL and 45.4 ng/mL and 12.3 ng/mL and 6.9 ng/mL and 29.5 ng/mL and 11.5 ng/mL and 79.2 ng/mL and 23.2 ng/mL
- Mean concentration in lavage fluid ([9]; inhalation, mean ± SD in (N) consecutive lavages, per patient): 55.3 ± 17.1 ng/mL and 28.6 ± 10 ng/mL and 66.8 ± 16 ng/mL and 30.6 ± 27.5 ng/mL and 16.8 ± 7.3 ng/mL and 49.1 ± 22.5 ng/mL and 149.7 ± 87.2 ng/mL and 92.4 ± 53.9 ng/mL
- Plasma conc. on Day 1 ([9]; inhalation, peak during inhalation (patients 1, 4, 6, 7, 15, 16) or at end of inhalation (10-14, 17)): 0.0 ng/mL
- Time to max conc. ([9]; inhalation, plasma, per patient): 5 days and 2 days and 1 days and 3 days and 14 days and 8 days
- mean plasma concentration ([9]; intravenous, at completion of first infusion): 179 ± 185 ng/mL
- mean peak serum pentamidine concentration [10]: 612 ng/mL
- Pre therapy DLCO (Pneumocystis carinii [11]; baseline, literature): 59.0 percent predicted
- Pre therapy PaO2 (Pneumocystis carinii [11]; baseline, literature): 69.3 torr
- Pre therapy Vital Capacity (Pneumocystis carinii [11]; baseline, literature): 70 percent predicted
- Successful Treatment W/ Change, % (Pneumocystis carinii [11]; literature): 95%
- Successful Treatment w/o Change, % (Pneumocystis carinii [11]; literature): 40%
- Post therapy PaO2 (Pneumocystis carinii [11]; post therapy, literature (TMP-DPS: only 8 patients tested)): 87.2 torr
- Post therapy DLCO (Pneumocystis carinii [11]; post therapy, literature): 62 percent predicted
- Post therapy Vital Capacity (Pneumocystis carinii [11]; post therapy, literature): 80 percent predicted
- attack rate of PCP at 6.38 months (Pneumocystis carinii [12]; 300 mg once per month, previous study): 18%
- attack rate of PCP (Pneumocystis carinii [12]; 300 mg twice per month): 5.6%
- attack rate of PCP (Pneumocystis carinii [12]; 600 mg once per month): 8.1%
- patients who developed PCP (Pneumocystis carinii [12]; mean duration 10.6 months, 10 patients): 6.8%
- attack rate of PCP at 6.38 months (Pneumocystis carinii [12]; this trial, p<0.01 vs 300 mg once per month): 3%
- particle size (MMAD ± GSD) ([13]; Example 3, nebulizer of Example 2, 600 mg in 6 mL): 1.42±1.88 μm
- mass of particles larger than 4 μm ([13]; at the mouthpiece (point B)): less than 5%
- particle size (MMAD) ([13]; at the mouthpiece (point B)): 1.42 μm
- mass of particles larger than 4 μm [13, 17]: greater than 20%
- particle size (MMAD) [13, 17]: 2.38 μm
- pentamidine distal to the exhalation filter ([13]; point C): No pentamidine was found distal to the exhalation filter
- withdrawals due to toxicity (Side effects (Example 6); all groups): no withdrawals due to toxicity
- Cough (Side effects (Example 6); group a, 30 mg every two weeks): 25%
- Metallic Taste (Side effects (Example 6); group a, 30 mg every two weeks): 11%
- Wheezing (Side effects (Example 6); group a, 30 mg every two weeks): 10%
- Cough (Side effects (Example 6); [18]): 34%
- Metallic Taste (Side effects (Example 6); [18]): 16%
- Wheezing (Side effects (Example 6); [18]): 14%
- Cough (Side effects (Example 6); [19]): 34%
- Metallic Taste (Side effects (Example 6); [19]): 20%
- Wheezing (Side effects (Example 6); [19]): 14%
- patients developing severe toxicity requiring discontinuation ([14]; TMP-SMX oral/parenteral or pentamidine isethionate parenteral): approximately 50%
- side effects ([14]; parenteral pentamidine): elevation of liver enzymes, hematologic disturbances with neutropenia and thrombocytopenia, fever, hypocalcemia, and hallucinations
- impaired renal function ([14]; patients receiving (parenteral) pentamidine): about 25%
- microscopic airway changes [15]: no microscopic airway changes have been noted
- serum pentamidine concentration ([16]; 2 patients at end of therapy): 22 ng/mL and 32 ng/mL
- serum pentamidine concentration ([16]; 12/14 patients): less than 10 ng/mL
